Tests used:
Aβ40 [1] = assay: Acute PK/PD in APOE4-TR mice: Aβ40 in CSF; type: in vivo, mouse; settings: for Average Aβ40 CSF ± SD: n = 6
Experimental: Compound 1 was formulated as a suspension. Vehicle or compound was given by oral administration in a volume of 10 ml/kg once. Vehicle: 0.1% Tween80 in 0.5% Methylcellulose in water.
Analysis of Aβ40 in Mouse Brain and Aβ40 and Aβ42 in CSF

Aβ40 [2] = assay: Aβ40 in APP23 mouse CSF; type: in vivo; settings: APP23 mice; for CSF Aβ40 Mean ± SEM: 6 months
Experimental: Mouse CSF samples (3 μl) was diluted with 57 μL 1% Blocker A (MSD) and 25 μl were applied to the assay plate.
CSF was collected from all mice at necropsy. Samples from the baseline group were stored for approximately 6 months, and analyzed together with the rest of the samples at the end of the study. […] The reason for the high baseline values is currently not known. It is hypothesized that this is an effect of long term storage, when dissociation of oligomeric forms of Aβ may lead to higher monomeric concentrations. CSF Aβ, more than Triton TX-100 solubilized Aβ from brain extracts, represents the steady-state concentration of soluble amyloid-β that directly responds to changes in Aβ generation.

GFAP positive astrocytes = assay: Activated astrocytes in APP23 mice (GFAP positive area); type: in vivo, mouse; settings: for Distal GFAP+ area / Proximal GFAP+ area / Total GFAP+ area / non-plaque associated GFAP+ area / plaque-associated GFAP+ area: normalized to total area (100 * mean ± SEM)
Text: Amyloid plaques were stained using a rabbit anti-Aβ primary antibody which recognizes the C-terminal part of the amyloid peptide (the antibody was raised as described in Schrader-Fischer G, Paganetti P A, 1996; Schrader-Fischer G et al., 1997). Activated astrocytes were detected using a commercial rabbit anti-GFAP (reference Z0334 from Dako Schweiz GmbH, Baar, Switzerland).
All study animals were used and brain tissue sections of 3 micrometers were freshly cut and collected on SuperFrost+ slides. The tissues sections were de-paraffinized and rehydrated under solvent-free conditions (EZprep solution) followed by antigen retrieval (demasking) performed by heat retrieval cycles for 32 min in an EDTA based buffer (CC1 solution). Subsequently, slides were blocked for 4 min using the DISCOVERY Inhibitor (reference 07017944001 (Roche)). The primary antibody diluted at 1/20,000 in antibody diluent was manually added on tissue sections and incubated for 1h at room temperature. A short post-fixation (glutaraldehyde at 0.05%) was performed before applying the multimer UltraMap-anti Rabbit HRP ready to use antibody (reference 05269717001) for 16 min.
Detection was performed using the DISCOVERY FITC® following the manufacturer's recommendations. Slides were then heat denaturated at 92° C. for 20 min before a manual application of the second primary antibody (anti-GFAP diluted at 1/2,000) and incubated for 1 h. UltraMap-anti-Rabbit HRP antibody was used again for 20 min to detect GFAP in combination with the DISCOVERY Rhodamine kit (reference 07259883001).
The slides were washed and mounted using Prolong® Gold antifade reagent (reference P36931, ThermoFisher, Switzerland) and further scanned with the Hamamatsu slide scanner instrument (NanoZoomer 2.0 HT, scanning software NDP-Scan Vers. 2.5, Hamamatsu Photonics France, Swiss Office, Solothurn, Switzerland) at the 40× objective. The scanning settings were as follows: the exposure time with the DAPI filter was set at 57 ms as well as for the FITC filter. The exposure time for the TRITC filter (detection of Rhodamine) was set at 14.2 ms.
For the beta-amyloid plaque and neuroinflammation analysis, the following sequence of steps was performed: • Slides were scanned with Hamamatsu Nanozoomer at 40× magnification. For each fluorescence labelling (DAPI, FITC and TRITC), a separate image was created • Manually outline ROIs (regions of interest) for defining cortex in brain sections for Aβ plaque assessment on the green FITC channel image, then use the resulting outline also for the other two channel images (copy resulting xml files) • Run the in-house developed ImageScope (V12.1.0.5029, Aperio Inc., USA) plug-in for creation and export of *.tif image tiles (at 10× magnification) for each of the 3 fluorescence channels
Image Batch Processing: • Obtain the combined true color image (DAPI, FITC, TRITC) for each section through accessing each individual fluorescence channel image • Segmentation of valid sample (within outlined ROI) from black unstained background • Apply adaptive thresholding technique for segmentation of objects in green channel image
(FITC-labeled Aβ plaques) • Separation of touching objects for correct subsequent individual object analysis after elimination of too small debris showing signal in the green (FITC) channel • Segmentation of TRITC-labeled objects in red channel (specific for GFAP or Iba1 staining indicating astrocytes or microglia) through morphological tophat transformation and thresholding • Feature based object classification […]

Aβ40 [3] = assay: Formic acid soluble Aβ40 in APP23 mouse forebrain; type: in vivo
Experimental: Frozen mouse forebrains were weighed and homogenized in 9 volumes (w/v) of ice-cold TBS-Complete (20 mM Tris-HCl pH 7.4, 137 mM NaCl, 1× Complete [Protease Inhibitor Cocktail Tablets: 1 836 145, Roche Diagnostics GmbH, Penzberg, Germany]) by sonication (90% duty cycle, output control 5, 40-55 pulses, [Sonifier 450, Branson]). After homogenization several 50 μl aliquots were prepared for analysis and were stored at −80° C.
Fifty microliter of forebrain homogenate was mixed with 116.6 μl 100% formic acid, resulting in a final formic acid concentration of 70%. Samples were stored on ice and vortexed every 5 minutes. For neutralization, 50 μl of the mixture were pipetted into a new tube, and 950 μl of 1 M Tris base, containing 1× Complete Protease inhibitor, was added. Tubes were stored at room temperature overnight and then centrifuged for 15 minutes at 14000 rpm in an Eppendorf Microzentrifuge at 4° C. From the top layer, 100 μl are removed and mixed with 100 μl of 3% Blocker A solution (part of the MesoScale assay kit). This sample was either directly applied to the assay plate (dilution 1:1332) or further diluted in 1% Blocker A solution.

## C[C@@]1(c2nc(NC(=O)c3ncc(C(F)(F)F)cc3Cl)ccc2F)CO[C@@](C)(C(F)(F)F)C(N)=N1 [Compound 1, N-(6-((3R,6R)-5-amino-3,6-dimethyl-6-(trifluoromethyl)-3,6-dihydro-2H-1,4-oxazin-3-yl)-5-fluoropyridin-2-yl)-3-chloro-5-(trifluoromethyl)picolinamide]
Aβ40 [1]; 3 μmol/kg acute
  Mini AUEC (CSF Aβ40): 26%
Aβ40 [1]; 3 μmol/kg acute p.o., 4 h
  Average Aβ40 CSF ± SD: 0.1308 ± 0.06381 pmol/mL
Aβ40 [1]; 3 μmol/kg acute p.o., 24 h
  Average Aβ40 CSF ± SD: 0.1402 ± 0.07911 pmol/mL
Aβ40 [1]; 3 μmol/kg acute, 4 h
  % reduction vs vehicle (CSF Aβ40): 28%
Aβ40 [1]; 3 μmol/kg acute, 24 h
  % reduction vs vehicle (CSF Aβ40): 23%
Aβ40 [1]; 10 μmol/kg acute
  Mini AUEC (CSF Aβ40): 37%
Aβ40 [1]; 10 μmol/kg acute p.o., 4 h
  Average Aβ40 CSF ± SD: 0.07527 ± 0.03356 pmol/mL
Aβ40 [1]; 10 μmol/kg acute p.o., 24 h
  Average Aβ40 CSF ± SD: 0.1565 ± 0.08348 pmol/mL
Aβ40 [1]; 10 μmol/kg acute, 4 h
  % reduction vs vehicle (CSF Aβ40): 59%
Aβ40 [1]; 10 μmol/kg acute, 24 h
  % reduction vs vehicle (CSF Aβ40): 14%
Aβ40 [1]; 30 μmol/kg acute
  Mini AUEC (CSF Aβ40): 77%
Aβ40 [1]; 30 μmol/kg acute p.o., 4 h
  Average Aβ40 CSF ± SD: 0.02533 ± 0.01093 pmol/mL
Aβ40 [1]; 30 μmol/kg acute p.o., 24 h
  Average Aβ40 CSF ± SD: 0.06083 ± 0.03445 pmol/mL
Aβ40 [1]; 30 μmol/kg acute, 4 h
  % reduction vs vehicle (CSF Aβ40): 86%
Aβ40 [1]; 30 μmol/kg acute, 24 h
  % reduction vs vehicle (CSF Aβ40): 67%
Aβ40 [2]; 0.03 g/kg food
  CSF Aβ40 Change vs vehicle: −8.6%
  CSF Aβ40 Mean ± SEM: 31.2 ± 2.11 ng/mL
Aβ40 [2]; 0.3 g/kg food
  CSF Aβ40 Change vs vehicle: −54.3%
  CSF Aβ40 Mean ± SEM: 15.6 ± 1.8 ng/mL
GFAP positive astrocytes; APP23, 0.03 g/kg food
  Distal GFAP+ area: 12.16 ± 1.52
  Proximal GFAP+ area: 4.11 ± 0.86
  Total GFAP+ area: 18.56 ± 2.59
  non-plaque associated GFAP+ area: 16.27 ± 2.19
  plaque-associated GFAP+ area: 2.29 ± 0.47
GFAP positive astrocytes; APP23, 0.03 g/kg vs vehicle
  Distal GFAP+ area, change vs vehicle: −8.9%
  Proximal GFAP+ area, change vs vehicle: −28.0%
  Total GFAP+ area, change vs vehicle: −16.9%
  non-plaque associated GFAP+ area, change vs vehicle: −14.6%
  plaque-associated GFAP+ area, change vs vehicle: −29.8%
GFAP positive astrocytes; APP23, 0.3 g/kg food
  Distal GFAP+ area: 9.72 ± 1.65
  Proximal GFAP+ area: 1.91 ± 0.51
  Total GFAP+ area: 12.79 ± 2.33
  non-plaque associated GFAP+ area: 11.63 ± 2.06
  plaque-associated GFAP+ area: 1.16 ± 0.32
GFAP positive astrocytes; APP23, 0.3 g/kg vs vehicle
  Distal GFAP+ area, change vs vehicle: −27.2%
  Proximal GFAP+ area, change vs vehicle: −66.6%
  Total GFAP+ area, change vs vehicle: −42.7%
  non-plaque associated GFAP+ area, change vs vehicle: −39.0%
  plaque-associated GFAP+ area, change vs vehicle: −64.3%
Aβ40 [3]; APP23, 0.03 g/kg vs vehicle
  Formic acid soluble Aβ40 change vs vehicle: −18.1%
Aβ40 [3]; APP23, 0.3 g/kg vs vehicle
  Formic acid soluble Aβ40 change vs vehicle: −79.2%
